The source of these data is patent US20020037872A1, “N6 heterocyclic 5' modified adenosine derivatives” (CV Therapeutics, Inc., priority 1999, published 2002).

Each structure is given as a SMILES string.

Assay [1] deals with T1, A1 adenosine receptor (Mesocricetus auratus, UniProt A0A1U8BVR4).
T1 construct: endogenous in cells; host or cells: DDT1 (DDT1 MF-2) hamster vas deferens smooth muscle cells
T1 sequence (A0A1U8BVR4 1-326): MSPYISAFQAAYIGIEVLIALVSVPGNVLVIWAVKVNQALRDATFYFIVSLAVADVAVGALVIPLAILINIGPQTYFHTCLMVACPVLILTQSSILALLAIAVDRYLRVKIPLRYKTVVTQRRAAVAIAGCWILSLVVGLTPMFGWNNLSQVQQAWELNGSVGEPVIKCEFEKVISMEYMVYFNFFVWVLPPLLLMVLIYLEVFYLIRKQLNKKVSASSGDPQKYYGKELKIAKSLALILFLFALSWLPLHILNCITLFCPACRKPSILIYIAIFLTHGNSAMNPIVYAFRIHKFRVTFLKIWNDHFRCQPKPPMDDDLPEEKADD
Kind of assay: [35S]GTPγS binding assay, A1-agonist stimulated. The note with it: […], agonist stimulated [35S]GTPγS binding, CPA = 100%. It is filed as biochemical, hamster. Put shortly: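 Membranes in 50 mM Tris-HCl pH 7.4, 5 mM MgCl2, 100 mM NaCl, 1 mM DTT used for A1-agonist-stimulated [35S]GTPγS binding, read by filtration. Nonspecific binding defined with 10 μM GTPγS. Saturation runs used 0.5 nM [35S]GTPγS with 0.5–1000 nM GTPγS.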

The target of a further assay is T2, A2A AdoR (Cavia porcellus, UniProt P46616).
T2 construct: from tissue; host or cells: guinea pig isolated perfused heart
Kind of assay: Guinea pig isolated perfused heart: coronary vasodilation (coronary conductance). The note with it: guinea pig isolated perfused hearts; read-out: EC50 to cause coronary vasodilation. How it is done:
(§1) Guinea pigs of either sex weighing 250-300 g were anesthetized with methoxyflurane and killed by cervical dislocation. The hearts were quickly removed and rinsed in ice-cold Krebs-Henseleit solution. The aorta was cannulated and the heart retrogradely perfused at a constant flow of 10 ml min^−1 with modified Krebs-Henseleit solution containing (mM): NaCL 117.9, KCl 4.8, CaCl2 2.5, MgSO4 1.18, KH2PO4 1.2, Na2EDTA 0.5, ascorbic acid 0.14, glucose 5.5, pyruvic acid (sodium salt) 2.0, and NaHCO3 25. The K—H solution was oxygenated with 95% oxygen and 5% CO2, pH 7.4, and temperature maintained at 36° C.
Coronary perfusion pressure was measured using a pressure transducer that was connected to the aortic cannula via a T-connector. Coronary perfusion pressure (in mmHg) was monitored throughout an experiment and recorded on a 4-channel Gould strip-chart recorder (Gould RS3400, Cleveland, Ohio, U.S.A.). Coronary conductance (in ml min^−1 mmHg^−1) was calculated as the ratio of coronary perfusion rate (10 ml min^−1) and perfusion pressure (mmHg).

In assay [2] the target is T3, A1 adenosine receptor (Cavia porcellus, UniProt P47745).
T3 construct: The hearts were quickly removed and rinsed in ice-cold Krebs-Henseleit solution; from tissue; host or cells: guinea pig isolated perfused heart
T3 sequence (P47745 1-326): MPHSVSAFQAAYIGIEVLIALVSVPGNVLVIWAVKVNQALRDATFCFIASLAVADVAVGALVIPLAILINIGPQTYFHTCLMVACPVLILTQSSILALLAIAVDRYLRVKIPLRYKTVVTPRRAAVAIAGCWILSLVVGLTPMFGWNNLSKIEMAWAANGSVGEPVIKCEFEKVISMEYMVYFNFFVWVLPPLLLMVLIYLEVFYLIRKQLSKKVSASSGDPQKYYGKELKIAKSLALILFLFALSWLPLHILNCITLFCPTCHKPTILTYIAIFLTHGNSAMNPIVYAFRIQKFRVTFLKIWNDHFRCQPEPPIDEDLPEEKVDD
Description: Guinea pig isolated perfused heart: S-H interval, heart rate, atrial MAP. How it is done: as §1
Hearts were electrically paced at a cycle length of 290-300 ms (unless otherwise indicated) using a bipolar electrode placed on the right atrium or ventricle. The stimulator, an interval generator (Model 1830, WPI, Sarasota, Fla., U.S.A.) delivered stimuli through a stimulus isolation unit (Model 1880, WPI) as square wave pulses of 3 ms in duration and at least twice the threshold intensity. The stimulus-to-His bundle (S—H) interval was used as index of AV nodal conduction time and was measured on-line during constant atrial pacing from microcomputer with a DT-208 1A interface board (Axon Instruments, Burlingame, Calif., U.S.A.) In experiments to study the chronotropic effect (effect on heart rate) of A1 AdoR agonists, the hearts were allowed to beat spontaneously. An atrial electrogram was used to record the electrical activity of the atria and to measure the heart rate.
Monophasic action potentials (MAP) were recorded using a pressure contact silver-silver chloride electrode (Langendorf Probe, EP Technologies, Inc., Sunnyvale, Calif., U.S.A.) placed on the surface of the left atrium. […] Signals were considered adequate if they were stable for at least 5 min and the amplitudes of the MAPs exceeded 10 mV. The data were digitized at 2 kHz by a DT-2801A digitizing board (Data Translation, Marlboro, Mass., U.S.A.) and stored using the Snapshot data acquisition program (Snapshot Storage Scope, HEM Data Corp., Southfield, Mich., U.S.A.) for later analysis. The duration of the atrial monophasic action potential was measured at 90% repolarization (MAPD90), using the Snapshot program. After completion of dissection and instrumentation, the hearts were allowed to equilibrate for 30 min before the experiments were begun. Whenever the baseline and post-intervention (washout) values differed by more than 15% the data were discarded. Approximately 60-70% of the experiments conformed with this criteria.

T2 sequence (P46616 whole entry, the tested form may be a part): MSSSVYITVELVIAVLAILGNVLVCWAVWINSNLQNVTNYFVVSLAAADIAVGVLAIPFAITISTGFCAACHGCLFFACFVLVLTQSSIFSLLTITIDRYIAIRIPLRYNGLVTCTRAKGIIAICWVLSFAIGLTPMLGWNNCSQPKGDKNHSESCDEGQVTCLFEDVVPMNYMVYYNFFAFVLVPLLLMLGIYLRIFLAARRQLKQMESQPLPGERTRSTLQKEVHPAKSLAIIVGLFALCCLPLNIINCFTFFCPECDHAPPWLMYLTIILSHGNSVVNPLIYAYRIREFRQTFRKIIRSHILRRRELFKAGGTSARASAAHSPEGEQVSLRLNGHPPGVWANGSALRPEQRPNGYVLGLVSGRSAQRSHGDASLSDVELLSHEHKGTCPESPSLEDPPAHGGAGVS

By Emax is commonly meant the maximal effect, on the per cent scale that the assay sets. By EC50 is commonly meant the midpoint of the concentration-response curve. Turning to `CNC(=O)OC[C@H]1O[C@@H](n2cnc3c(N[C@@H]4CCOC4)ncnc32)[C@H](O)[C@@H]1O` [Compound 6, (5-16[((3R)oxolan-3-yl)aminolpurin-9-yl)(3S,2R,4R,5R)-3,4dihydroxyoxolan-2yl)methoxyl-N-methylearboxamide], the Emax on A1 adenosine receptor [1] worked out at 48%. Also, the EC50 on A2A AdoR worked out at 31 ± 5.1 µM. The “agonist character at A1 AdoR” value at A1 adenosine receptor [2] was “true partial A1 AdoR agonist”. Besides, the “antagonism of S-H interval prolongation caused by full agonist CPA” value on A1 adenosine receptor [2] (Compound 6 2 and 10 μm, atrial cycle length 300 msec, FIG. 3) is on record as “antagonizes the negative dromotropic effect”. Also, on A1 adenosine receptor [2] (FIG. 1 panel B), the “effect on atrial monophasic action potential” value is recorded as “no effect”. For the same molecule, at A1 adenosine receptor [2] (FIG. 1 panel C), the “effect on AV nodal conduction time (S-H interval)” value is “concentration-dependent and significant increase in AV nodal conduction time”; the “second-degree AV block” value is given as “without causing second-degree AV block at any concentration tested”. For the same molecule, the EC50 at A1 adenosine receptor [2] (guinea pig isolated perfused hearts, read-out: EC50 to prolong S-H interval (negative dromotropic effect)) was determined as 2.8 ± 1.3 µM. Further, at A1 adenosine receptor [2] (ratio of potencies), the “selectivity: S-H interval prolongation versus increase of coronary conductance” value is on record as “at least 10 fold”. In addition, the “effect on heart rate (chronotropic)” value at A1 adenosine receptor [2] (spontaneously beating hearts, FIG. 1 panel A) is “did not slow heart rate”.
